# Reference: patent US20190231666A1, “ANTI-DANDRUFF COMPOSITION” (Conopco, Inc., d/b/a UNILEVER, priority 2016, published 2019)
# How the values were obtained:
# MCF7 cells = details: 13 μM myricetin vs DMSO vehicle control, FIGS. 2A and 2B; cited from earlier work
# [1] = test system: normal human epidermal keratinocytes (HEKa cells); assay: IL-8 release from keratinocytes stimulated with IL-17, IL-22 and TNFα; format: cell-based; details: 16 hrs
# Protocol: To test the foregoing hypothesis, the inventors devised an in vitro model for the inflammatory conditions prevalent in the skin of subjects with dandruff. The model involves in vitro tissue culture of normal human epidermal keratinocytes (HEKa cells). The cells were exposed to a combination of IL-17, TNFα and IL-22 to stimulate an inflammatory-type response, which response was measured by production of IL-8 by the keratinocytes and also by analysis of their general gene expression profile. Adult proliferating human epidermal karatinocytes (HEKa) (from Thermo Fisher Scientific) used at low passage (p3 or lower). Cells were cultured in keratinocyte maintenance medium KGM Gold (Lonza Group) containing all components of the bullet kit plus 70 μM calcium. For the assay, cells were plated in KGM Gold with all components of the bullet kit except hydrocortisone and gentamycin, supplemented with 70 μM calcium. […] After 16 hrs the cell culture medium was removed and the amount of IL-8 cytokine released from the keratinocyte cells was quantified using a DuoSet IL-8 ELISA kit (R&D Systems Ltd). The keratinocyte cells were lysed in RIPA buffer and the total amount of protein in each sample quantified using a Pierce BCA protein assay kit (Thermofisher Ltd). […] All treatments were run in triplicate and a mean and standard deviation value calculated, the results being illustrated in FIG. 3.
# [2] = 25° C.; cited from earlier work
structure (smiles),measurement,setting,value
"O=c1c(O)c(-c2cc(O)c(O)c(O)c2)oc2cc(O)cc(O)c12 [Myricetin, myricetin]",effect on gene expression changes observed in dandruff scalp skin relative to healthy scalp skin,MCF7 cells,reverse some of the gene expression changes
same,inflammatory response to the cytokines (IL-8 release),"[1]; 6.5 μg/ml myricetin, IL-17 200 ng/ml, IL-22 200 ng/ml, TNFa 10 ng/ml, p=0.0001",marked inhibition
same,production of IL-8 (inflammatory response),"[1]; HEKa cells, IL-17, TNFα and IL-22 stimulation, FIG. 3",significant reduction
same,solubility in water,[2],about 55 mg/L
